The values below come from patent publication US9586951B2 (FUJIFILM Corporation, priority 2013, dated 2017).

Where only a bound is given, the exact number is not on record here.

The target in the first experiment is T1, ATM (Homo sapiens, UniProt Q13315).
T1 construct: detecting phosphorylation of Chk2 in a human non-small cell lung cancer cell line NCI-H460 (ATCC company); host or cells: NCI-H460 human non-small cell lung cancer cells
T1 sequence (Q13315 whole entry): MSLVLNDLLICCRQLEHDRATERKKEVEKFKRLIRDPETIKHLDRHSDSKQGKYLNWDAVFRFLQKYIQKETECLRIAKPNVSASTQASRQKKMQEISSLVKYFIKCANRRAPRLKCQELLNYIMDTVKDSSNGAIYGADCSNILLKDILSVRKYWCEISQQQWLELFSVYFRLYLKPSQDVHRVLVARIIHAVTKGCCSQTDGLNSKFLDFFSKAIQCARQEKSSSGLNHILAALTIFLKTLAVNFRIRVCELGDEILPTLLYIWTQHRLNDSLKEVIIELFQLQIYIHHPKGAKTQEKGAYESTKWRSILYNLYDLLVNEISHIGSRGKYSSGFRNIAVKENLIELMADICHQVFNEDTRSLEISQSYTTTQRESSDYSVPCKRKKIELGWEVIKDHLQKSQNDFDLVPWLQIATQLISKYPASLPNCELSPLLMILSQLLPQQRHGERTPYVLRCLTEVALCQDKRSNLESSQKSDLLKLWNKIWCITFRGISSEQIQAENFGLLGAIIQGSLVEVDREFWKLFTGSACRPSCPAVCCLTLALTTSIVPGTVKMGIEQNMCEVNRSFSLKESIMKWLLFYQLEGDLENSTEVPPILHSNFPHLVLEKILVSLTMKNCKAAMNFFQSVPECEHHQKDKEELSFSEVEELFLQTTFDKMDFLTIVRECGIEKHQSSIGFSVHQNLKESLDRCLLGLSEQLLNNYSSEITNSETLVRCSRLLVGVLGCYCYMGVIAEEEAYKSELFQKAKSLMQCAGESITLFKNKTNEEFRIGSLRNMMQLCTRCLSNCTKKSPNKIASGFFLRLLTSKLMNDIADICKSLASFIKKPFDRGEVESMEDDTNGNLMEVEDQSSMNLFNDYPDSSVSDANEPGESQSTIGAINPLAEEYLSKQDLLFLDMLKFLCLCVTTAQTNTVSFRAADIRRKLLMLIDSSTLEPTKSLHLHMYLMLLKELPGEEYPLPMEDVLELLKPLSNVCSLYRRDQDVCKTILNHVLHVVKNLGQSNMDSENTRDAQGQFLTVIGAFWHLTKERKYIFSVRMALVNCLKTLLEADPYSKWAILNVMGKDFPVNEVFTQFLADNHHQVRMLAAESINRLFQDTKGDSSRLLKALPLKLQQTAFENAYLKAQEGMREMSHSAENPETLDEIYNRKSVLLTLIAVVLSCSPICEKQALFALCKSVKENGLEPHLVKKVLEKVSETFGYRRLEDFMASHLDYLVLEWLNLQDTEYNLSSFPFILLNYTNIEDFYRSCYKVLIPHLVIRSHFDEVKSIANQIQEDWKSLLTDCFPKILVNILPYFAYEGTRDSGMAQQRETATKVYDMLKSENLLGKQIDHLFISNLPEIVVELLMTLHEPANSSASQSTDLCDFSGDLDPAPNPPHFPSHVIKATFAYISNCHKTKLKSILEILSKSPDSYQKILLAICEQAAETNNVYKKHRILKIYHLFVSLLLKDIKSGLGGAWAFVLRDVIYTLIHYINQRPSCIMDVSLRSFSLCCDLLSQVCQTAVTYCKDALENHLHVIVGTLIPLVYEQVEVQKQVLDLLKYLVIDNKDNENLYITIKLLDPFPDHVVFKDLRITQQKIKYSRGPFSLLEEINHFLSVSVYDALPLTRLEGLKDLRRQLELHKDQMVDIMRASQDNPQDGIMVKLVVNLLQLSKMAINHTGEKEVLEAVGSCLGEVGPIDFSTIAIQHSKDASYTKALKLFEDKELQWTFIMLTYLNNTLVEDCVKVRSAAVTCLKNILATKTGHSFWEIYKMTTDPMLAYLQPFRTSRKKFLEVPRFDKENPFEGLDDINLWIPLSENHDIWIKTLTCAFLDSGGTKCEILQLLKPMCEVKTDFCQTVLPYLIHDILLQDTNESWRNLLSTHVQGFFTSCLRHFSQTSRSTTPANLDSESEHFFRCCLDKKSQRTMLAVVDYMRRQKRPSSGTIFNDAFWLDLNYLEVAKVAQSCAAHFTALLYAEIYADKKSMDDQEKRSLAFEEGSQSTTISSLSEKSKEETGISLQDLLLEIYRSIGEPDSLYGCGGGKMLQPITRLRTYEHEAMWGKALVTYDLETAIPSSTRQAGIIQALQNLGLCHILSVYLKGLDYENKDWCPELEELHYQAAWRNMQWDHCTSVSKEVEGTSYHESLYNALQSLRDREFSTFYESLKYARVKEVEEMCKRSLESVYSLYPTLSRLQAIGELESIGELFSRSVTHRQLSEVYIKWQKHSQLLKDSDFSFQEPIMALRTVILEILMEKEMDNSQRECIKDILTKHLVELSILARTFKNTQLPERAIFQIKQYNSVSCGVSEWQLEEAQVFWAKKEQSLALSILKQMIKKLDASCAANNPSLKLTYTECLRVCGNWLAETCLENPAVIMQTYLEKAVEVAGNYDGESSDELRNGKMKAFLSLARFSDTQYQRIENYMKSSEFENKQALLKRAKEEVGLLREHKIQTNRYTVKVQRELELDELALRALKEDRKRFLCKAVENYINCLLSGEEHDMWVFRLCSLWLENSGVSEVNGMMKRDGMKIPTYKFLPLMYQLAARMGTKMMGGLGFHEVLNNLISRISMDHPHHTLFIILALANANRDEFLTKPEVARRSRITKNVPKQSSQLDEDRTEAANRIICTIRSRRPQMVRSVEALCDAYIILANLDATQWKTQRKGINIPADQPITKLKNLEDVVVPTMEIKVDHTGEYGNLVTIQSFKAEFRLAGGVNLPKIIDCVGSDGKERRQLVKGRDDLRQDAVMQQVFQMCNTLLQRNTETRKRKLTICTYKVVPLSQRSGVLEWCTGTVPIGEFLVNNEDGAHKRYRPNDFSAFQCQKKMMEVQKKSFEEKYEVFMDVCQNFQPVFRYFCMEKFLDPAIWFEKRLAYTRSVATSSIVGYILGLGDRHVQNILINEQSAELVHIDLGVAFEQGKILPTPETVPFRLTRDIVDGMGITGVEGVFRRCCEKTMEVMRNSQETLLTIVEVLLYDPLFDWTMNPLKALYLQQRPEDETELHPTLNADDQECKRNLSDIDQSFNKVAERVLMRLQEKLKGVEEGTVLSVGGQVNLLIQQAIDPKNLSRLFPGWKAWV
In words: ATM inhibition test (phosphorylation of Chk2 generated by ionizing radiation, AlphaScreen SureFire). In kind it is cell-based. To be noted: ATM inhibitory activity, phosphorylated Chk2 in NCI-H460 cells, ionizing radiation 8Gy, 1 hour after test compound treatment. The gist of the method: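 NCI-H460 cells, compound 1 h pre-treatment, 8Gy IR, further 1 h at 37° C in 5% CO2. Read-out: phospho-Chk2 via AlphaScreen SureFire. % inhibition relative to IR-induced signal window (irradiated vs non-irradiated drug-free wells).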
Take `O=c1cc(N2CCOCC2)cc(-c2cccc3c2Sc2ccc(N4CC4CN4CCOCC4)cc2S3)[nH]1` (centres unmarked) [Example 1-38, 4-morpholino-6-(7-(2-(morpholinomethyl)aziridin-1-yl)thianthren-1-yl)pyridin-2(1H)-one]: the IC50 is 100 to 500 nM.

The experiment is the same for the next values; noted with them: phosphorylated Chk2 in NCI-H460 cells, ionizing radiation 8Gy, 1 hour after test compound treatment; read-out: ATM inhibitory activity.
For the compound `Cc1cc(C)nc(CNc2ccc3c(c2)Cc2cccc(-c4cc(N5CCOCC5)cc(=O)[nH]4)c2O3)c1` [Example 2-14-15, 6-(7-(((4,6-Dimethylpyridin-2-yl)methyl)amino)-9H-xanthen-4-yl)-4-morpholino pyridin-2 (1H)-one], the IC50 lay within 100 to 500 nM.
Same read-out and setting: the value for `COc1ccc(CCN2CCCC(Nc3ccc4c(c3)Sc3cccc(-c5cc(N6CCOCC6)cc(=O)[nH]5)c3O4)CC2)cc1` (centres unmarked) [Example 4-7, 6-(8-((1-(4-Methoxyphenethyl)azepan-4-yl)amino)phenoxathiin-4-yl)-4-morpholinopyridin-2(1H)-one] was 100 to 500 nM; that for `COc1ccc(CNc2ccc3c(c2)Sc2cccc(-c4cc(N5CCOCC5)cc(=O)[nH]4)c2S3)cn1` [Example 1-12-16, 6-(7-(((6-Methoxypyridin-3-yl)methyl)amino)thianthren-1-yl)-4-morpholino pyridin-2 (1H)-one] was 100 to 500 nM.
Still for that read-out and setting: as for `COc1cc(CNc2ccc3c(c2)Cc2cccc(-c4cc(N5CCOCC5)cc(=O)[nH]4)c2O3)ccn1` [Example 2-22-1, 6-(7-(((2-methoxypyridin-4-yl)methyl)amino)-9H-xanthen-4-yl)-4-morpholinopyridin-2(1H)-one], the figure is 100 to 500 nM; as for `COC(=O)CCCCN1CCC(Nc2ccc3c(c2)Cc2cccc(-c4cc(N5CCOCC5)cc(=O)[nH]4)c2O3)CC1` [Example 2-30-16, Methyl 5-(4-((5-(4-morpholino-6-oxo-1,6-dihydropyridin-2-yl)-9H-xanthen-2-yl)amino)piperidin-1-yl)pentanoate], 100 to 500 nM.
The same measure, in the same setting: as for `O=c1cc(N2CCOCC2)cc(-c2nccc3c2Oc2ccc(NCc4cccc(Cl)n4)cc2C3)[nH]1` [Example 2-41-8, 6-(7-(((6-Chloropyridin-2-yl)methlyl)anlino)-5H-chromeno [2,3-c]pyridin-1-yl)-4-morpholino pyridin-2(1H)-one], the figure is 100 to 500 nM; as for `Cc1cccc(C(CO)Nc2ccc3c(c2)Cc2cccc(-c4cc(N5CCOCC5)cc(=O)[nH]4)c2O3)n1` (racemic) [Example 2-14-38, 6-(7-((2-Hydroxy-1-(6-methylpyridin-2-yl)ethyl)amino)-9H-xanthen-4-yl)-4-morpholino pyridin-2 (1H)-one], 100 to 500 nM.
Consider `CC(C)Nc1cncc(CNc2ccc3c(c2)Cc2cccc(-c4cc(N5CCOCC5)cc(=O)[nH]4)c2O3)c1` [Example 2-2-75, 6-(7-(((5-(Isopropylamino)pyridin-3-yl)methyl)amino)-9H-xanthen-4-yl)-4-morpholino pyridin-2(1H)-one], for which the IC50 was 100 to 500 nM.
Still for that read-out and setting: as for `Cn1c(CNc2ccc3c(c2)Cc2cccc(-c4cc(N5CCOCC5)cc(=O)[nH]4)c2O3)cccc1=O` [Example 2-2-47, 1-Methyl-6-(((5-(4-morpholino-6-oxo-1,6-dihydropyridin-2-yl)-9H-xanthen-2-yl)amino)methyl) pyridin-2(1H)-one], the figure is 500 to 2000 nM.
Still for that read-out and setting: the value for `O=c1cc(N2CCOCC2)cc(-c2cccc3c2Oc2ccc(NCc4cnccc4Cl)cc2C3)[nH]1` [Example 2-14-4, 6-(7-(((4-Chloropyridin-3-yl)methyl)amino)-9H-xanthen-4-yl)-4-morpholino pyridin-2(1H)-one] was 100 to 500 nM; that for `CCCC(Nc1ccc2c(c1)Cc1cccc(-c3cc(N4CCOCC4)cc(=O)[nH]3)c1O2)c1cncc(OC)c1` (centres unmarked) [Example 2-14-17, 6-(7-((1-(5-Methoxypyridin-3-yl)butyl)amino)-9H-xanthen-4-yl)-4-morpholino pyridin-2(1H)-one] was 100 to 500 nM; that for `Cc1ccc(C(Nc2ccc3c(c2)Sc2cccc(-c4cc(N5CCOCC5)cc(=O)[nH]4)c2S3)C2CCN(C)C2)nc1` (single isomer, unassigned) [Example 10-3-5] was below 100 nM.
For the compound `Cc1cc(CNc2ccc3c(c2)Sc2cccc(-c4cc(N5CCOCC5)cc(=O)[nH]4)c2S3)ccn1` [Example 1-44-3, 6-(7-(((2-Methylpyridin-4-yl)methyl)amino)thianthren-1-yl)-4-morpholino pyridin-2(1H)-one], the IC50 is 100 to 500 nM.
As for `COCc1ccc(CNc2ccc3c(c2)Cc2cccc(-c4cc(N5CCOCC5)cc(=O)[nH]4)c2O3)cn1` [Example 2-2-43, 6-(7-(((6-(Methoxymethyl)pyridin-3-yl)methyl)amino)-9H-xanthen-4-yl)-4-morpholino pyridin-2(1H)-one], the IC50 was 100 to 500 nM.
In the case of `Cc1nccc(CNc2ccc3c(c2)Cc2cccc(-c4cc(N5CCOCC5)cc(=O)[nH]4)c2O3)n1` [Example 2-14-68, 6-(7-(((2-Methylpyrimidin-4-yl)methyl)amino)-9H-xanthen-4-yl)-4-morpholino pyridin-2(1H)-one], the IC50 fell in the range of 500 to 2000 nM.
On the same count and under the same terms, the value for `O=c1cc(N2CCOCC2)cc(-c2cccc3c2Oc2ccc(NCC4CCN(c5ccncc5)CC4)cc2C3)[nH]1` [Example 2-21-5] was 500 to 2000 nM; that for `O=c1cc(N2CCOCC2)cc(-c2cccc3c2Sc2ccc(NCc4cncc(-c5cccnc5)c4)cc2S3)[nH]1` [Example 1-12-21, 6-(7-(([3,3′-Bipyridin]-5-ylmethyl)amino)thianthren-1-yl)-4-morpholino pyridin-2 (1H)-one] was below 100 nM; that for `CC(C)(C)OC(=O)n1cc(-c2cncc(CNc3ccc4c(c3)Sc3cccc(-c5cc(N6CCOCC6)cc(=O)[nH]5)c3S4)c2)cn1` [Example 1-44-6, tert-Butyl 4-(5-(((6-(4-morpholino-6-oxo-1,6-dihydropyridin-2-yl)thianthren-2-yl)amino)methyl)pyridin-3-yl)-1H-pyrazole-1-carboxylate] was below 100 nM.
Same read-out and setting: as for `COc1ccncc1CN1CCC(Nc2ccc3c(c2)Cc2cccc(-c4cc(N5CCOCC5)cc(=O)[nH]4)c2O3)CC1` [Example 2-28-11, 6-(7-((1-((4-Methoxypyridin-3-yl)methyl)piperidin-4-yl)amino)-9H-xanthen-4-yl)-4-morpholino pyridin-2(1H)-one], the figure is 100 to 500 nM.
The same measure, in the same setting: as for `Cn1cc(-c2cc(CNc3ccc4c(c3)Cc3cccc(-c5cc(N6CCOCC6)cc(=O)[nH]5)c3O4)ccn2)cn1` [Example 2-4, 6-(7-(((2-(1-methyl-1H-pyrazol-4-yl)pyridin-4-yl)methyl)amino)-9H-xanthen-4-yl)-4-morpholinopyridin-2(1H)-one], the figure is below 100 nM; as for `CCN(CC)CCNc1ccc2c(c1)Cc1cccc(-c3cc(N4CCOCC4)cc(=O)[nH]3)c1S2` [Example 3-4-4, 6-(7-((2-(Diethylamino)ethyl)amino)-9H-thioxanthen-4-yl)-4-morpholino pyridin-2(1H)-one], 500 to 2000 nM; as for `CC(CN1CCNCC1)Nc1ccc2c(c1)Sc1cccc(-c3cc(N4CCOCC4)cc(=O)[nH]3)c1S2` (centres unmarked) [Example 1-14, 4-Morpholino-6-(7-((1-(piperazin-1-yl)propan-2-yl)amino)thianthren-1-yl)pyridin-2(1H)-one], 500 to 2000 nM.
Turning to `CN(C)c1ncc(CN2CCC(Nc3ccc4c(c3)Cc3cccc(-c5cc(N6CCOCC6)cc(=O)[nH]5)c3O4)CC2)cn1` [Example 2-28-13, 6-(7-((1-((2-(Dimethylamino)pyrimidin-5-yl)methyl)piperidin-4-yl)amino)-9H-xanthen-4-yl)-4-morpholino pyridin-2(1H)-one], the IC50 was 100 to 500 nM.
With `O=c1cc(N2CCOCC2)cc(-c2cccc3c2Sc2ccc(N[C@H](CCN4CCOCC4)CN4CCOCC4)cc2S3)[nH]1` [Example 8-1, (R)-6-(7-((1,4-dimorpholinobutan-2-yl)amino)thianthren-1-yl)-4-morpholinopyridin-2(1H)-one], the IC50 fell in the range of 100 to 500 nM.
On the same count and under the same terms, the value for `CC(Nc1ccc2c(c1)Sc1cccc(-c3cc(N4CCOCC4)cc(=O)[nH]3)c1S2)c1cccc(CN(C)C)n1` (centres unmarked) [Example 1-12-111, 6-(7-((1-(6-((Dimethylamino)methyl)pyridin-2-yl)ethyl)amino)thianthren-1-yl)-4-morpholino pyridin-2(1H)-one] was 100 to 500 nM; that for `CCOC(=O)CNc1ccc2c(c1)Sc1cccc(-c3cc(N4CCOCC4)cc(=O)[nH]3)c1S2` [Example 1-12-49, Ethyl 2-((6-(4-morpholino-6-oxo-1,6-dihydropyridin-2-yl)thianthren-2-yl)amino) acetate] was below 100 nM.
As to `Cc1ccnc(C(CO)Nc2ccc3c(c2)Cc2cccc(-c4cc(N5CCOCC5)cc(=O)[nH]4)c2O3)n1` (centres unmarked) [Example 2-14-82, 6-(7-((2-Hydroxy-1-(4-methylpyrimidin-2-yl)ethyl)amino)-9H-xanthen-4-yl)-4-morpholino pyridin-2(1H)-one], the IC50 is 500 to 2000 nM.
Consider `CC(Nc1ccc2c(c1)Cc1cccc(-c3cc(N4CCOCC4)cc(=O)[nH]3)c1O2)c1cccnc1` (single isomer, unassigned) [Example 2-36-2, 4-Morpholino-6-(7-((1-(pyridin-3-yl)ethyl)amino)-9H-xanthen-4-yl)pyridin-2(1H)-one], for which the IC50 lay within 100 to 500 nM.
Take `CC(C)CC(Nc1ccc2c(c1)Sc1cccc(-c3cc(N4CCOCC4)cc(=O)[nH]3)c1S2)[C@H](C)N` (stereo partly drawn) [Example 1-20-4, 6-(7-(((2S)-2-Amino-5-methylhexan-3-yl)amino)thianthren-1-yl)-4-morpholino pyridin-2(1H)-one]: the IC50 fell in the range of 500 to 2000 nM.
On the same count and under the same terms, the value for `Cc1cncc(C(CO)Nc2ccc3c(c2)Sc2cccc(-c4cc(N5CCOCC5)cc(=O)[nH]4)c2S3)c1` (centres unmarked) [Example 1-12-66, 6-(7-((2-Hydroxy-1-(5-methylpyridin-3-yl)ethyl)amino)thianthren-1-yl)-4-morpholino pyridin-2(1H)-one] was 100 to 500 nM.
The same measure, in the same setting: as for `CC(Nc1ccc2c(c1)Cc1cccc(-c3cc(N4CCOCC4)cc(=O)[nH]3)c1O2)c1cccnc1` (racemic) [Example 2-11-1, 4-morpholino-6-(7-((1-(pyridin-3-yl)ethyl)amino)-9H-xanthen-4-yl)pyridin-2(1H)-one], the figure is 100 to 500 nM.
